Measurements reported in US10669272B2, “Substituted naphthyridinone compounds useful as T cell activators” (BRISTOL-MYERS SQUIBB COMPANY, priority 2018, dated 2020).
Where two headings read alike, the source gives them in different places.

Assays:
human DGKα = target: T1, human DGKα (Homo sapiens, UniProt P23743); assay: DGKα LIPGLO assay (extruded liposome substrate), in vitro DGK inhibition; assay type: biochemical; conditions: read-out: DGKa LIPGLO IC50
T1 construct: TVMV protease cleavage site (C); Hexa-His (C); made in house; host or cells: Sf9 insect cells (baculovirus, Bac-to-Bac)

human DGKζ = target: T2, human DGKζ (Homo sapiens, UniProt Q13574); assay: DGKζ LIPGLO assay (extruded liposome substrate), in vitro DGK inhibition; assay type: biochemical; conditions: read-out: DGKz LIPGLO IC50
T2 construct: TVMV protease cleavage site (C); Hexa-His (C); made in house; host or cells: Sf9 insect cells (baculovirus, Bac-to-Bac)

Human venous whole blood = assay: Human whole blood IFN-γ assay; assay type: cell-based; conditions: human whole blood, read-out: INFg Whole Blood Normalized Agonist EC50;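 note: blood from healthy donors exposed to compound for 1 h before stimulation with anti-CD3 and anti-CD28 at 1 µg/mL each, IFN-γ quantified in supernatant by AlphaLISA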
[1] = normalized to 3 μM reference compound with anti-CD3 plus anti-CD28 as 100% activation
[2] = Homo sapiens, 24 h, normalized to 3 μM reference compound with anti-CD3 plus anti-CD28 as 100% activation

T1 sequence (P23743 with tags, fused parts or gaps): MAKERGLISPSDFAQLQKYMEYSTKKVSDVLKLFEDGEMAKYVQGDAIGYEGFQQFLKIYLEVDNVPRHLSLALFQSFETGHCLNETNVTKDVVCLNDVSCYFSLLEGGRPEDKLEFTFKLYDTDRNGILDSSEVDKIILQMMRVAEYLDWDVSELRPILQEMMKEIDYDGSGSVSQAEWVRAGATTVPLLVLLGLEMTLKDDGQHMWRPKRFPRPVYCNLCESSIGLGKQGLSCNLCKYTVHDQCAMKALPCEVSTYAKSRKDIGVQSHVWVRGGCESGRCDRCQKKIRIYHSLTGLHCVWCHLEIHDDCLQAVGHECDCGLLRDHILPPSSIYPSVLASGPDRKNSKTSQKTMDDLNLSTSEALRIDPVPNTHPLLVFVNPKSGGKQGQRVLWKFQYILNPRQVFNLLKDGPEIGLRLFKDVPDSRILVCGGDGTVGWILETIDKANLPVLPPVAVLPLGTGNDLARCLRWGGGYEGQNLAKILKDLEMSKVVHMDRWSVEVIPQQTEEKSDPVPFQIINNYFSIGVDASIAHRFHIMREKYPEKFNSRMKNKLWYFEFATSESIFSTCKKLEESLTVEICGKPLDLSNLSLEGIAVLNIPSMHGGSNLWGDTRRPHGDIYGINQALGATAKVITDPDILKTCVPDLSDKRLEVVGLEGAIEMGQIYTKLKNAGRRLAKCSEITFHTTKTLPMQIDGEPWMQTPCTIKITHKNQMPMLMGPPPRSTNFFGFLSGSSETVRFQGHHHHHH
T2 sequence (Q13574 with tags, fused parts or gaps isoform Q13574-4): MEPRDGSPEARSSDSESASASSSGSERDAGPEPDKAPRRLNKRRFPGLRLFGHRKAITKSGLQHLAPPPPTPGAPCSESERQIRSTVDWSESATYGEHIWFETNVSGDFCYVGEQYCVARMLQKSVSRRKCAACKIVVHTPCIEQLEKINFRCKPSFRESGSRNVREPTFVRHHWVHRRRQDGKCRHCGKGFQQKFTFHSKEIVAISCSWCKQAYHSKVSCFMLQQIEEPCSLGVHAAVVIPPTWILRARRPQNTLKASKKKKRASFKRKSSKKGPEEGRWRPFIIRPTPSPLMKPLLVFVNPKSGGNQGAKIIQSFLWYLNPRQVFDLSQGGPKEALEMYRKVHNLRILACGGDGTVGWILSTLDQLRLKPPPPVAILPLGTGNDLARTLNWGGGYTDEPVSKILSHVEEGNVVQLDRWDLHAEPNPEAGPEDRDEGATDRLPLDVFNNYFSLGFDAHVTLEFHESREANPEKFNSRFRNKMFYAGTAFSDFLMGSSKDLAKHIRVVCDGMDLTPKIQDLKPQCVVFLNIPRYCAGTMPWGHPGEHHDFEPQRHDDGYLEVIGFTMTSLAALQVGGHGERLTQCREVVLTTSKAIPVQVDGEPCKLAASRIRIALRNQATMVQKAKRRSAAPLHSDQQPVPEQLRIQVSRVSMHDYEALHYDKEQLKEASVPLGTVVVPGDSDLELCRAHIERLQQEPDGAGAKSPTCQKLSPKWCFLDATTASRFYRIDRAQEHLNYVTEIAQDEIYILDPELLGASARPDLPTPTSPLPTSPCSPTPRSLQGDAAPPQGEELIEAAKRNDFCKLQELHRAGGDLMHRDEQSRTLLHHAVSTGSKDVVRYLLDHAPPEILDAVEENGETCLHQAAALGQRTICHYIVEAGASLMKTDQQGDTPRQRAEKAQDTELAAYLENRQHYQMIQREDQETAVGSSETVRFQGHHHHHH

IC50 (human DGKα; liposome (LIPGLO) assay)	IC50 (human DGKζ; liposome (LIPGLO) assay)	IC50 (human DGKα; DGKα liposome (LIPGLO) assay)	IC50 (human DGKζ; DGKζ liposome (LIPGLO) assay)	Compound	EC50 (Human venous whole blood; [1])	EC50 (Human venous whole blood; [2])	EC50 (Human venous whole blood; anti-CD3 plus anti-CD28, 24 hours, 3 μM reference compound = 100% activation)	EC50 (Human venous whole blood; Homo sapiens, 24 h, anti-CD3 plus anti-CD28, 24 hours, 3 μM reference compound = 100% activation)
0.61 µM	0.35 µM			CCC(c1ccc(OC(C)C)cc1)N1C[C@H](C)N(c2cc(=O)n(C)c3ccc(C#N)nc23)C[C@H]1C (single isomer, unassigned) [Example 1449]	0.87 µM			
0.015 µM	0.017 µM			CC[C@@H]1CN(c2cc(=O)n(C)c3ccc(C#N)nc23)[C@@H](C)CN1C(c1ccc(F)cc1)c1nc(C2CC2)no1 (stereo partly drawn) [Example 1117]		0.15 µM		
0.043 µM	0.092 µM			CC[C@H]1CN(C(c2ccc(F)cc2)c2cocn2)[C@H](CC)CN1c1cc(=O)n(C)c2ccc(C#N)nc12 (single isomer, unassigned) [Example 1068]	0.25 µM			
21 µM	1 µM			C[C@@H]1CN(C(c2ccc(F)cc2)c2ccc(Cl)cc2)[C@@H](CO)CN1c1cc(=O)n(C)c2ccc(C#N)nc12 (stereo partly drawn) [Example 1175]		20 µM		
2.2 µM	0.015 µM			CC(c1ccc2c(c1)OCCO2)N1C[C@H](C)N(c2cc(=O)n(C)c3ccc(C#N)nc23)C[C@H]1C (single isomer, unassigned) [Example 1258]		2.6 µM		
0.037 µM	0.079 µM			CC[C@@H]1CN(c2cc(=O)n(C)c3ccc(C#N)nc23)[C@@H](C)CN1C(C)c1ccc(F)cc1 (single isomer, unassigned) [Example 1083]	0.075 µM			
51 µM	0.64 µM			COc1ccc(C(C)N2C[C@H](C)N(c3cc(=O)n(C)c4ccc(C#N)nc34)C[C@H]2C)cc1C(F)(F)F (stereo partly drawn) [Example 1249]		17 µM		
0.023 µM	0.14 µM			CC[C@@H]1CN(c2cc(=O)n(C)c3ccc(C#N)nc23)[C@@H](CC)CN1Cc1ccc(OC(F)(F)F)cc1F [Example 1370]		0.24 µM		

Continued, molecule first:

Compound	IC50 (human DGKα; liposome (LIPGLO) assay)	IC50 (human DGKζ; liposome (LIPGLO) assay)	IC50 (human DGKα; DGKα liposome (LIPGLO) assay)	IC50 (human DGKζ; DGKζ liposome (LIPGLO) assay)	EC50 (Human venous whole blood; [1])	EC50 (Human venous whole blood; [2])	EC50 (Human venous whole blood; anti-CD3 plus anti-CD28, 24 hours, 3 μM reference compound = 100% activation)	EC50 (Human venous whole blood; Homo sapiens, 24 h, anti-CD3 plus anti-CD28, 24 hours, 3 μM reference compound = 100% activation)
C[C@@H]1CN(c2cc(=O)n(C)c3ccc(C#N)nc23)[C@@H](C)CN1C(c1ccc(F)cc1)c1cccc(C(F)F)n1 (single isomer, unassigned) [Example 697]	0.74 µM	0.059 µM			0.2 µM			
C[C@@H]1CN(c2cc(=O)n(C)c3ccc(C#N)nc23)[C@@H](C)CN1C(c1ccc(F)cc1)c1nccs1 (single isomer, unassigned) [Example 712]	0.32 µM	0.72 µM			2.8 µM			
C[C@@H]1CN(c2cc(=O)n(C)c3ccc(C#N)nc23)[C@@H](C)CN1C(c1ccc(F)cc1)c1cccnn1 (single isomer, unassigned) [Example 383]	5.6 µM	13 µM				3.2 µM		
CCc1ccc(C(c2cccc(Cl)c2)N2C[C@H](C)N(c3cc(=O)n(C)c4ccc(C#N)nc34)C[C@H]2C)nc1 (single isomer, unassigned) [Example 355]	0.89 µM	0.74 µM				0.34 µM		
CC(C)c1nnc(C(c2ccc(F)cc2)N2C[C@H](C)N(c3cc(=O)n(C)c4ccc(C#N)nc34)C[C@H]2C)s1 (single isomer, unassigned) [Example 773]			0.76 µM	0.7 µM			7.9 µM	
CC[C@H]1CN(C(C)c2ccc(F)cc2)[C@H](CC)CN1c1cc(=O)n(C)c2ccc(C#N)nc12 (single isomer, unassigned) [Example 1050]	0.51 µM	0.9 µM			4.4 µM			
C[C@@H]1CN(c2cc(=O)n(C)c3ccc(C#N)nc23)[C@@H](C)CN1CC1CCOCC1 [Example 623]	130 µM	> 250 µM				20 µM		
CC1CN(C(c2ccc(F)cc2)c2nc(C(C)(C)C)no2)C(C)CN1c1c(C#N)c(=O)n(C)c2ccc(C#N)nc12 (single isomer, unassigned) [Example 862]			0.29 µM	0.6 µM				1.2 µM
C[C@@H]1CN(c2cc(=O)n(C)c3ccc(C#N)nc23)[C@@H](C)CN1C(c1ccccc1)c1ccc(Cl)cc1 (single isomer, unassigned) [Example 671]	3.3 µM	3.2 µM			1.2 µM			
